According to patent US6737441B2, “Treatment of helicobacter with isothiocyanates” (priority 2000, dated 2004):
In brackets after ≈: the same amount, converted by molar mass. Like-named read-outs stand apart in the source and are kept apart here. Blank lines part the entries; values can stand above or below the compound they belong to.

Legend:
[1] = system: amoxicillin/clarithromycin/metronidazole - susceptible strains of Helicobacter pylori; experiment: Bacteriostatic activity (MIC) against susceptible strains; type: cell-based
[2] = system: clarithromycin and/or metronidazole - intermediate or resistant strains of Helicobacter pylori; experiment: Bacteriostatic activity (MIC) against intermediate or resistant strains; type: cell-based
[3] = in cell culture; cited from earlier work
[4] = Helicobacter pylori, H. pylori strain no 1, read-out: MIC
[5] = Helicobacter pylori, H. pylori strain no 2, read-out: MIC
[6] = Helicobacter pylori, H. pylori strain no 3, read-out: MIC
[7] = Helicobacter pylori, H. pylori strain no 4, read-out: MIC
[8] = Helicobacter pylori, H. pylori strain no 5, read-out: MIC
[9] = Helicobacter pylori, H. pylori strain no 6, read-out: MIC
[10] = Helicobacter pylori, H. pylori strain no 7, read-out: MIC
[11] = Helicobacter pylori, H. pylori strain no 8, read-out: MIC
[12] = Helicobacter pylori, H. pylori strain no 9, read-out: MIC
[13] = Helicobacter pylori, H. pylori strain no 10, read-out: MIC
[14] = Helicobacter pylori, H. pylori strain no 11, read-out: MIC
[15] = Helicobacter pylori, H. pylori strain no 12, read-out: MIC
[16] = Helicobacter pylori, H. pylori strain no 13, read-out: MIC
[17] = Helicobacter pylori, H. pylori strain no 14, read-out: MIC
[18] = Helicobacter pylori, H. pylori strain no 15, read-out: MIC
[19] = Helicobacter pylori, H. pylori strain no 16, read-out: MIC
[20] = Helicobacter pylori, H. pylori strain no 17, read-out: MIC
[21] = Helicobacter pylori, H. pylori strain no 18, read-out: MIC
[22] = Helicobacter pylori, H. pylori strain no 23, read-out: MIC
[23] = Helicobacter pylori, H. pylori strain no 24, read-out: MIC
[24] = Helicobacter pylori, H. pylori strain no 25, read-out: MIC
[25] = Helicobacter pylori, H. pylori strain no 26, read-out: MIC
[26] = Helicobacter pylori, H. pylori strain no 27, read-out: MIC
[27] = Helicobacter pylori, H. pylori strain no 28, read-out: MIC
[28] = Helicobacter pylori, H. pylori strain no 29, read-out: MIC
[29] = Helicobacter pylori, H. pylori strain no 30, read-out: MIC
[30] = Helicobacter pylori, H. pylori strain no 31, read-out: MIC
[31] = Helicobacter pylori, H. pylori strain no 32, read-out: MIC
[32] = Helicobacter pylori, H. pylori strain no 33, read-out: MIC
[33] = Helicobacter pylori, H. pylori strain no 35, read-out: MIC
[34] = Helicobacter pylori, H. pylori strain no 36, read-out: MIC
[35] = Helicobacter pylori, H. pylori strain no 37, read-out: MIC
[36] = Helicobacter pylori, H. pylori strain no 38, read-out: MIC
[37] = Helicobacter pylori, H. pylori strain no 39, read-out: MIC
[38] = Helicobacter pylori, H. pylori strain no 40, read-out: MIC
[39] = Helicobacter pylori, H. pylori strain no 41, read-out: MIC
[40] = Helicobacter pylori, H. pylori strain no 42, read-out: MIC
[41] = Helicobacter pylori, H. pylori strain no 43, read-out: MIC
[42] = Helicobacter pylori, H. pylori strain no 44, read-out: MIC
[43] = Helicobacter pylori, H. pylori strain no 45, read-out: MIC
[44] = Helicobacter pylori, H. pylori strain no 46, read-out: MIC
[45] = Helicobacter pylori, H. pylori strain no 47, read-out: MIC
[46] = Helicobacter pylori, H. pylori strain no 19, read-out: MIC
[47] = Helicobacter pylori, H. pylori strain no 20, read-out: MIC
[48] = Helicobacter pylori, H. pylori strain no 22, read-out: MIC

- MIC [1, 4]: 1 µg/mL (≈ 5.84 µM)
- MIC [1, 5]: 1 µg/mL (≈ 5.84 µM)
- MIC [1, 6]: 1 µg/mL (≈ 5.84 µM)
- MIC [1, 7]: 1 µg/mL (≈ 5.84 µM)
- MIC [1, 8]: 4 µg/mL (≈ 23.4 µM)
- MIC [1, 9]: 0.06 µg/mL (≈ 0.351 µM)
- MIC [1, 10]: 0.06 µg/mL (≈ 0.351 µM)
- MIC [1, 11]: 0.5 µg/mL (≈ 2.92 µM)
- MIC [1, 12]: 1 µg/mL (≈ 5.84 µM)
- MIC [1, 13]: 0.5 µg/mL (≈ 2.92 µM)
- MIC [1, 14]: 0.25 µg/mL (≈ 1.46 µM)
- MIC [1, 15]: 1 µg/mL (≈ 5.84 µM)
- MIC [1, 16]: 1 µg/mL (≈ 5.84 µM)
- MIC [1, 17]: 0.06 µg/mL (≈ 0.351 µM)
- MIC [1, 18]: 0.06 µg/mL (≈ 0.351 µM)
- MIC [1, 19]: 0.5 µg/mL (≈ 2.92 µM)
- MIC [1, 20]: 1 µg/mL (≈ 5.84 µM)
- MIC [1, 21]: 1 µg/mL (≈ 5.84 µM)
- MIC [1, 22]: 0.06 µg/mL (≈ 0.351 µM)
- MIC [1, 23]: 0.5 µg/mL (≈ 2.92 µM)
- MIC [1, 24]: 1 µg/mL (≈ 5.84 µM)
- MIC [1, 25]: 1 µg/mL (≈ 5.84 µM)
- MIC [1, 26]: 0.06 µg/mL (≈ 0.351 µM)
- MIC [1, 27]: 0.5 µg/mL (≈ 2.92 µM)
- MIC [1, 28]: 1 µg/mL (≈ 5.84 µM)
- MIC [1, 29]: 0.5 µg/mL (≈ 2.92 µM)
- MIC [1, 30]: 0.25 µg/mL (≈ 1.46 µM)
- MIC [1, 31]: 1 µg/mL (≈ 5.84 µM)
- MIC [2, 32]: 32 µg/mL (≈ 187 µM)
- MIC ([2]; Helicobacter pylori, H. pylori strain no 34, read-out: MIC): 256 µg/mL (≈ 1500 µM)
- MIC [2, 33]: 64 µg/mL (≈ 374 µM)
- MIC [2, 34]: 64 µg/mL (≈ 374 µM)
- MIC [2, 35]: 64 µg/mL (≈ 374 µM)
- MIC [2, 36]: 64 µg/mL (≈ 374 µM)
- MIC [2, 37]: 256 µg/mL (≈ 1500 µM)
- MIC [2, 38]: 64 µg/mL (≈ 374 µM)
- MIC [2, 39]: 16 µg/mL (≈ 93.5 µM)
- MIC [2, 40]: 1 µg/mL (≈ 5.84 µM)
- MIC [2, 41]: 1 µg/mL (≈ 5.84 µM)
- MIC [2, 42]: 0.5 µg/mL (≈ 2.92 µM)
- MIC [2, 43]: 2 µg/mL (≈ 11.7 µM)
- MIC [2, 44]: 32 µg/mL (≈ 187 µM)
- MIC [2, 45]: 64 µg/mL (≈ 374 µM)
SMILES: Cc1ncc([N+](=O)[O-])n1CCO [Metronidazole]

SMILES: CC[C@H]1OC(=O)[C@H](C)[C@@H](O[C@H]2C[C@@](C)(OC)[C@@H](O)[C@H](C)O2)[C@H](C)[C@@H](O[C@@H]2O[C@H](C)C[C@H](N(C)C)[C@H]2O)[C@](C)(OC)C[C@@H](C)C(=O)[C@H](C)[C@@H](O)[C@]1(C)O [Clarithromycin]
- MIC ([1]; H. pylori strain no 2): 0.125 µg/mL (≈ 0.167 µM)
- MIC ([1]; H. pylori strain no 28): 0.125 µg/mL (≈ 0.167 µM)
- MIC ([1]; Helicobacter pylori): 0.125 µg/mL (≈ 0.167 µM)
- MIC [1, 4]: 0.06 µg/mL (≈ 0.0802 µM)
- MIC [1, 7]: 0.06 µg/mL (≈ 0.0802 µM)
- MIC [1, 8]: 0.06 µg/mL (≈ 0.0802 µM)
- MIC [1, 9]: 0.06 µg/mL (≈ 0.0802 µM)
- MIC [1, 10]: 0.06 µg/mL (≈ 0.0802 µM)
- MIC [1, 11]: 0.06 µg/mL (≈ 0.0802 µM)
- MIC [1, 12]: 0.06 µg/mL (≈ 0.0802 µM)
- MIC [1, 13]: 0.06 µg/mL (≈ 0.0802 µM)
- MIC [1, 14]: 0.06 µg/mL (≈ 0.0802 µM)
- MIC [1, 15]: 0.06 µg/mL (≈ 0.0802 µM)
- MIC [1, 16]: 0.06 µg/mL (≈ 0.0802 µM)
- MIC [1, 17]: 0.06 µg/mL (≈ 0.0802 µM)
- MIC [1, 18]: 0.06 µg/mL (≈ 0.0802 µM)
- MIC [1, 19]: 0.06 µg/mL (≈ 0.0802 µM)
- MIC [1, 20]: 0.06 µg/mL (≈ 0.0802 µM)
- MIC [1, 21]: 0.06 µg/mL (≈ 0.0802 µM)
- MIC [1, 46]: 0.06 µg/mL (≈ 0.0802 µM)
- MIC [1, 47]: 0.06 µg/mL (≈ 0.0802 µM)
- MIC ([1]; Helicobacter pylori, H. pylori strain no 21, read-out: MIC): 0.06 µg/mL (≈ 0.0802 µM)
- MIC [1, 48]: 2 µg/mL (≈ 2.67 µM)
- MIC [1, 22]: 0.06 µg/mL (≈ 0.0802 µM)
- MIC [1, 23]: 0.06 µg/mL (≈ 0.0802 µM)
- MIC [1, 24]: 0.06 µg/mL (≈ 0.0802 µM)
- MIC [1, 25]: 0.06 µg/mL (≈ 0.0802 µM)
- MIC [1, 26]: 0.06 µg/mL (≈ 0.0802 µM)
- MIC [1, 28]: 0.06 µg/mL (≈ 0.0802 µM)
- MIC [1, 29]: 0.06 µg/mL (≈ 0.0802 µM)
- MIC [1, 30]: 0.06 µg/mL (≈ 0.0802 µM)
- MIC [1, 31]: 0.06 µg/mL (≈ 0.0802 µM)
- MIC ([2]; H. pylori strain no 34): 0.125 µg/mL (≈ 0.167 µM)
- MIC ([2]; Helicobacter pylori): 0.125 µg/mL (≈ 0.167 µM)
- MIC [2, 32]: 0.06 µg/mL (≈ 0.0802 µM)
- MIC [2, 33]: 0.06 µg/mL (≈ 0.0802 µM)
- MIC [2, 34]: 0.06 µg/mL (≈ 0.0802 µM)
- MIC [2, 35]: 0.06 µg/mL (≈ 0.0802 µM)
- MIC [2, 36]: 0.5 µg/mL (≈ 0.668 µM)
- MIC [2, 38]: 0.06 µg/mL (≈ 0.0802 µM)
- MIC [2, 39]: 4 µg/mL (≈ 5.35 µM)
- MIC [2, 40]: 16 µg/mL (≈ 21.4 µM)
- MIC [2, 41]: 16 µg/mL (≈ 21.4 µM)
- MIC [2, 42]: 16 µg/mL (≈ 21.4 µM)
- MIC [2, 43]: 8 µg/mL (≈ 10.7 µM)
- MIC [2, 44]: 16 µg/mL (≈ 21.4 µM)
- MIC [2, 45]: 16 µg/mL (≈ 21.4 µM)

SMILES: CSCCCCCN=C=S [Bertoin]
- activity as inducers relative to sulforaphane and sulforaphene [3]: less active

- MIC [1, 4]: 0.06 µg/mL (≈ 0.164 µM)
- MIC [1, 5]: 0.06 µg/mL (≈ 0.164 µM)
- MIC [1, 6]: 0.06 µg/mL (≈ 0.164 µM)
- MIC [1, 7]: 0.06 µg/mL (≈ 0.164 µM)
- MIC [1, 8]: 0.06 µg/mL (≈ 0.164 µM)
- MIC [1, 9]: 0.06 µg/mL (≈ 0.164 µM)
- MIC [1, 10]: 0.06 µg/mL (≈ 0.164 µM)
- MIC [1, 11]: 0.06 µg/mL (≈ 0.164 µM)
- MIC [1, 13]: 0.06 µg/mL (≈ 0.164 µM)
- MIC [1, 14]: 0.06 µg/mL (≈ 0.164 µM)
- MIC [1, 15]: 0.06 µg/mL (≈ 0.164 µM)
- MIC [1, 16]: 0.06 µg/mL (≈ 0.164 µM)
- MIC [1, 17]: 0.06 µg/mL (≈ 0.164 µM)
- MIC [1, 18]: 0.06 µg/mL (≈ 0.164 µM)
- MIC [1, 19]: 0.06 µg/mL (≈ 0.164 µM)
- MIC [1, 20]: 0.06 µg/mL (≈ 0.164 µM)
- MIC [1, 21]: 0.06 µg/mL (≈ 0.164 µM)
- MIC [1, 46]: 0.06 µg/mL (≈ 0.164 µM)
- MIC [1, 47]: 0.06 µg/mL (≈ 0.164 µM)
- MIC [1, 48]: 0.06 µg/mL (≈ 0.164 µM)
- MIC [1, 22]: 0.06 µg/mL (≈ 0.164 µM)
- MIC [1, 23]: 0.06 µg/mL (≈ 0.164 µM)
- MIC [1, 24]: 0.06 µg/mL (≈ 0.164 µM)
- MIC [1, 25]: 0.06 µg/mL (≈ 0.164 µM)
- MIC [1, 26]: 0.06 µg/mL (≈ 0.164 µM)
- MIC [1, 27]: 0.06 µg/mL (≈ 0.164 µM)
- MIC [1, 29]: 0.06 µg/mL (≈ 0.164 µM)
- MIC [1, 30]: 0.06 µg/mL (≈ 0.164 µM)
- MIC [1, 31]: 0.06 µg/mL (≈ 0.164 µM)
- MIC [2, 32]: 0.06 µg/mL (≈ 0.164 µM)
- MIC [2, 33]: 0.06 µg/mL (≈ 0.164 µM)
- MIC [2, 34]: 0.06 µg/mL (≈ 0.164 µM)
- MIC [2, 35]: 0.06 µg/mL (≈ 0.164 µM)
- MIC [2, 37]: 0.06 µg/mL (≈ 0.164 µM)
- MIC [2, 38]: 0.06 µg/mL (≈ 0.164 µM)
- MIC [2, 39]: 0.06 µg/mL (≈ 0.164 µM)
- MIC [2, 40]: 0.06 µg/mL (≈ 0.164 µM)
- MIC [2, 41]: 0.06 µg/mL (≈ 0.164 µM)
- MIC [2, 42]: 0.06 µg/mL (≈ 0.164 µM)
- MIC [2, 43]: 0.06 µg/mL (≈ 0.164 µM)
- MIC [2, 44]: 0.06 µg/mL (≈ 0.164 µM)
- MIC [2, 45]: 0.06 µg/mL (≈ 0.164 µM)
SMILES: CC1(C)S[C@@H]2[C@H](NC(=O)[C@H](N)c3ccc(O)cc3)C(=O)N2[C@H]1C(=O)O [Amoxicillin]
